Experimental findings from patent US7892777B2, “Methods for measuring whether a treatment affects RPTP-κ activity” (The Regents Of The University Of Michigan, priority 2007, dated 2011) are described below.

Assay [1] has as its target purified EGFR (Homo sapiens, UniProt P00533). The conditions noted are these: EGFR with EGF and ATP/Mg2+, H2O2 at room temperature 30 min; FIG. 1B.
The target of assay [2] is RPTP-κ glutathione S-transferase fusion protein (Homo sapiens, UniProt Q15262). The following applies: 100 μM H2O2, room temperature 30 min; FIG. 1A.
Sequence of RPTP-κ glutathione S-transferase fusion protein (Q15262 775-1439 limits assumed): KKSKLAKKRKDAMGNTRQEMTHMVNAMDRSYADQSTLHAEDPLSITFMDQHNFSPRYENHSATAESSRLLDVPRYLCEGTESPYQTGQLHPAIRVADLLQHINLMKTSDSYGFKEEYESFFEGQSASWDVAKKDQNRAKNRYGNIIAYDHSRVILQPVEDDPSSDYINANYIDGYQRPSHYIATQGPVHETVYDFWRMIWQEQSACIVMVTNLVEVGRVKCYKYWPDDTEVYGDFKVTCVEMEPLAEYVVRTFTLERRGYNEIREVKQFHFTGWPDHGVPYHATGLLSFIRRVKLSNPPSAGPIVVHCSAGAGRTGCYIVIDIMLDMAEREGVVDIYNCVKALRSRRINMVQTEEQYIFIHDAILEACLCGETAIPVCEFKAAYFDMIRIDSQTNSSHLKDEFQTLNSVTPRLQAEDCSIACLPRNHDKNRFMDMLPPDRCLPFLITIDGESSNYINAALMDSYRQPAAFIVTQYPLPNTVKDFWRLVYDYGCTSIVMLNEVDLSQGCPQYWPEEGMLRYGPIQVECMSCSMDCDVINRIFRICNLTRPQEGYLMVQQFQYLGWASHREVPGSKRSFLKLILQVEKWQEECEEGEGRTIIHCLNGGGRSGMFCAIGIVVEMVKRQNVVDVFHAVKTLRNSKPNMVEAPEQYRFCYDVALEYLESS
Assay [3] has as its target RPTP-κ and EGFR (Homo sapiens, UniProt Q15262). The conditions noted are these: purified RPTP-κ and EGFR together, H2O2 100 μM, room temperature 30 min; FIG. 1C.
In assay [4] the test system is EGFR. The experiment in a line: EGFR tyrosine phosphorylation (EGFR activation) in primary human keratinocytes. The conditions noted are these: human primary keratinocytes treated before UV irradiation (extracts: 16 hours, 50 mJ/cm2, 30 minutes post irradiation). In kind it is cell-based. The procedure: With reference to FIG. 3, UV-induced EGFR tyrosine phosphorylation is shown to be ligand-independent and mediated by oxidative inhibition of RPTP-κ in primary human keratinocytes. Shown in panel A, primary human keratinocytes were treated with control IgG1 or EGFR antibody LA1 (1 μg/mL), which blocks ligand binding, as indicated. Cells were then treated with vehicle (CTRL), or EGF (10 ng/mL) for 10 min, or UV irradiated (50 mJ/cm^2) and harvested 15 min post irradiation. Whole cell lysates were subjected to Western analysis for total EGFR and tyrosine-phosphorylated EGFR. Levels of immunoreactive EGFR were quantified by chemifluorescent detection. Results are mean±S.E. of three independent experiments; *, p<0.05. […] Shown in panel B, human keratinocytes were UV-irradiated (50 mJ/cm^2), and whole cell lysates were prepared at the indicated times. RPTP-κ and β-actin (internal control) were detected by Western blot, and quantified by chemifluorescent detection. Results are mean±S.E. of three independent experiments; *, p<0.05. […] Shown in panel C, primary human keratinocytes were mock (No UV) or UV irradiated (50 mJ/cm^2), and whole cell lysates were prepared 5 min post-UV irradiation. RPTP-κ was immunoprecipitated, and phosphatase activity was determined using a tyrosine-phosphorylated EGFR peptide as substrate. Phosphatase activity was normalized to RPTP-κ protein content in the immunoprecipitates, which was quantified by Western analysis using chemifluorescent detection. Results are mean±S.E. of three independent experiments; *, p<0.05. […] Endogenous RPTP-κ was immunoprecipitated, and assayed for activity in buffer containing dithiothreitol to reduce oxidized RPTP-κ to restore enzymatic activity, using a tyrosine-phosphorylated EGFR peptide as substrate. Results are mean±S.E. of three independent experiments; *, p<0.05. Shown in panel E, RPTP-κ was immunoprecipitated from mock or UV-irradiated human keratinocytes, and the immunoprecipitates were treated with DTT to reduce oxidized RPTP-κ, as described above for panel C. Reduced RPTP-κ was irreversibly oxidized by pervanadate, and oxidized (OX-PTP) and total RPTP-κ were detected by Western blot, using specific antibodies. Results are mean±S.E. of three independent experiments; *, p<0.05.
With reference to FIG. 4, knockdown of RPTP-κ is shown to increase EGFR tyrosine phosphorylation in primary human keratinocytes. Shown in panel A, human keratinocytes were transfected with scrambled control (CTRL) or RPTP-κ siRNA. Two days post-transfection, whole cell lysates were prepared and analyzed for RPTP-κ and β-actin (internal control) proteins by Western blot. Results are mean±S.E. of three independent experiments; *, p<0.05. […] Shown in panel B, two days after transfection with control (CTRL) or RPTP-κ siRNA, keratinocytes were UV irradiated (50 mJ/cm2). Whole cell lysates were prepared 15 min post-UV irradiation and analyzed for total EGFR and tyrosine-phosphorylated EGFR Western blot. Results are mean±S.E. of three independent experiments; *, p<0.05. […] Shown in panel C, keratinocytes were transfected with control (CTRL) or RPTP-κ siRNA and treated with control IgG or neutralizing anti-EGFR antibody. Two days post-transfection, whole cell lysates were prepared and total and tyrosine-phosphorylated EGFR were quantified by ELISA. Results are mean±S.E. of three independent experiments; *, p<0.05.
With reference to FIG. 7, primary adult human keratinocytes were treated with Laminaria japonica extract (LJE) or Porphyra haitanensis extract (PHE) for 16 hours prior to exposure to ultraviolet (UV) irradiation (50 mJ/cm2). Cells were analyzed for phosphorylated epidermal growth factor receptor (EGFR) and total EGFR by Western analyses 30 minutes post irradiation. […]

Sequence of purified EGFR (P00533 25-1210): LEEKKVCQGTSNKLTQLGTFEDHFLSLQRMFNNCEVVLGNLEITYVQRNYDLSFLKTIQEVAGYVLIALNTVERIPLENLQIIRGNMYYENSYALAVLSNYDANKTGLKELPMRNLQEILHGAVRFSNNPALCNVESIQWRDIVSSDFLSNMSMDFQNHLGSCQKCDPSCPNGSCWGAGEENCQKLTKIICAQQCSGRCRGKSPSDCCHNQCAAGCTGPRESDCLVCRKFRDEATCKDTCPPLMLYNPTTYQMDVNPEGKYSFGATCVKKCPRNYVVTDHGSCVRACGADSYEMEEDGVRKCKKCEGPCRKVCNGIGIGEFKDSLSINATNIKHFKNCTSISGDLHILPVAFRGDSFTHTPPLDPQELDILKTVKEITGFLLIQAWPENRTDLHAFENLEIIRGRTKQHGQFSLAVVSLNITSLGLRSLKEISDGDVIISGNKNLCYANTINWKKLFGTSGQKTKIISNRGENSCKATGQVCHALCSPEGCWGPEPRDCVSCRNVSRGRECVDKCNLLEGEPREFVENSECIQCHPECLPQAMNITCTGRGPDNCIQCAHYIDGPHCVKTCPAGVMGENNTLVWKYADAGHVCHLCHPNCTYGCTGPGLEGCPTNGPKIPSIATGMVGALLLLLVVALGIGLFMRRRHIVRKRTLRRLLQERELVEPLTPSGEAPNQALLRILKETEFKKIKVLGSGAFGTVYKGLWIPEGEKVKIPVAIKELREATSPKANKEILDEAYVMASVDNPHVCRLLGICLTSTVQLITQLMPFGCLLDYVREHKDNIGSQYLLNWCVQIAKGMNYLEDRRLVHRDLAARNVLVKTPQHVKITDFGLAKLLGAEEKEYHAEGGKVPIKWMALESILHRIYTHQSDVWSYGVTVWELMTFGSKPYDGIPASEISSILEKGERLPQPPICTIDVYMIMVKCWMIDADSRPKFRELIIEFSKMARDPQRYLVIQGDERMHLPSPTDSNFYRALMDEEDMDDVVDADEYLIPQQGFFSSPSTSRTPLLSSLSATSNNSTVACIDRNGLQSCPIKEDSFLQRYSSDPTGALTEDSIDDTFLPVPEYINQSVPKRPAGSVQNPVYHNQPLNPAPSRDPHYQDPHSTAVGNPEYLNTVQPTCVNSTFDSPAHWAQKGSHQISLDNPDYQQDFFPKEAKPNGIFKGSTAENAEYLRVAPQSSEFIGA
Sequence of RPTP-κ and EGFR (Q15262 775-1439 limits assumed): as the sequence (Q15262 775-1439 limits assumed) above

As for `OO` [H2O2, hydrogen peroxide], the “effect on tyrosine phosphorylation of purified EGFR” value in assay [1] is “no direct effect”. For the same molecule, the “loss of RPTP-κ activity” value in assay [2] is 80%. In addition, the EGFR tyrosine phosphorylation result in assay [3] is listed as “increased to the level observed in the absence of RPTP-κ”. As for `CC1=NN(c2ccccc2)C(=O)C1` [MCI-186, 3-Methyl-1-phenyl-2-pyrazolin-5-one], the “UV irradiation-induced EGFR activation” value in assay [4] is “no effect”. Turning to `CC1=C(C)C(=O)C(CC[C@](C)(O)CCC[C@H](C)CCC[C@H](C)CCCC(C)C)=C(C)C1=O` [Tocopherylquinone, d-alpha], the “UV irradiation-induced EGFR activation” value in assay [4] was “no effect”. Still for that read-out and setting: the same measure for `CC(=O)N[C@@H](CS)C(=O)O` [N-Acetyl cysteine]: “no effect”; for `COC1=C(OC)C(=O)C(CCCCCCCCCC[P+](c2ccccc2)(c2ccccc2)c2ccccc2)=C(C)C1=O` [Mito Q10]: “no effect”; for `O=C(/C=C/c1ccc(O)c(O)c1)OCCc1ccccc1` [CAPE, Caffeic acid phenethyl ester]: “no effect”. For the molecule `Oc1ccc(C=Cc2cc(O)cc(O)c2)cc1` [Resveratrol], the “UV irradiation-induced EGFR activation” value in assay [4] was “no effect”; in assay [4] (listed as resveratrol), “did not exhibit activity”.
